Assay [1] deals with H+,K+-ATPase. The arrangement: method as in PMID 35604136, PMID 28747707. To be noted: cited from earlier work.
Assay [2] deals with T1, H+,K+-ATPase (Sus scrofa, UniProt P19156). Nature of the assay: Dose-dependent inhibition of H+,K+-ATPase activity, membrane fractions. Particulars: for H+,K+-ATPase activity, raw data of dose-dependent inhibition: single replicate values.
The target in assay [3] is T1, H+,K+-ATPase. Kind of assay: K+-dependent ATPase assay, double reciprocal plot and Ki estimation. To be noted: for reciprocal K+-stimulated ATPase activity, Lineweaver-Burk raw data: replicate values; for inhibition mode: double reciprocal plot, versus K+. In kind it is biochemical, pig. Details: H^+,K^+-ATPase-enriched membrane fractions were purified from pig stomach; from tissue; host or cells: pig stomach (gastric membrane fractions); reciprocal K+-stimulated ATPase activity, Lineweaver-Burk raw data: unit not given here. An excerpt:
Data measured from 96-well plate contained triplicates of four different sets of K^+-dependent ATPase assays in the absence or presence of three different concentrations of synthesized compounds. Data were corrected for background values in the absence of K^+ at each compound concentration, and plot them against the double reciprocal axes in Supplementary Fig. 5. Data were also fitted by using simultaneous nonlinear regression as described previously to estimate their Ki values.

[4] abbreviates: [PCAB] -3.30103 (log, unit not given).
The mark [5] stands for this setting: [PCAB] -3.52288 (log, unit not given).
The mark [6] stands for this setting: [PCAB] -4 (log, unit not given).
The mark [7] stands for this setting: [PCAB] -4.30103 (log, unit not given).
Setting [8] is: [PCAB] -4.52288 (log, unit not given).
Setting [9] is: [PCAB] -5 (log, unit not given).
Setting [10] is: [PCAB] -5.52288 (log, unit not given).
Setting [11] is: [PCAB] -6 (log, unit not given).
The mark [12] stands for this setting: [PCAB] -6.30103 (log, unit not given).
The mark [13] stands for this setting: [PCAB] -7 (log, unit not given).
Setting [14] is: [PCAB] -8 (log, unit not given).
Where [15] appears, read: [PCAB] -11 (log, unit not given; possibly placeholder for no compound).

Structures are written as SMILES. Values joined by “and” are separate entries in the source; they are usually repeats but may differ in a detail not shown here. Equal values may be shown once. Read-outs that look alike come from different tables or passages of the source.

T1 sequence (P19156 2-1034 limits assumed): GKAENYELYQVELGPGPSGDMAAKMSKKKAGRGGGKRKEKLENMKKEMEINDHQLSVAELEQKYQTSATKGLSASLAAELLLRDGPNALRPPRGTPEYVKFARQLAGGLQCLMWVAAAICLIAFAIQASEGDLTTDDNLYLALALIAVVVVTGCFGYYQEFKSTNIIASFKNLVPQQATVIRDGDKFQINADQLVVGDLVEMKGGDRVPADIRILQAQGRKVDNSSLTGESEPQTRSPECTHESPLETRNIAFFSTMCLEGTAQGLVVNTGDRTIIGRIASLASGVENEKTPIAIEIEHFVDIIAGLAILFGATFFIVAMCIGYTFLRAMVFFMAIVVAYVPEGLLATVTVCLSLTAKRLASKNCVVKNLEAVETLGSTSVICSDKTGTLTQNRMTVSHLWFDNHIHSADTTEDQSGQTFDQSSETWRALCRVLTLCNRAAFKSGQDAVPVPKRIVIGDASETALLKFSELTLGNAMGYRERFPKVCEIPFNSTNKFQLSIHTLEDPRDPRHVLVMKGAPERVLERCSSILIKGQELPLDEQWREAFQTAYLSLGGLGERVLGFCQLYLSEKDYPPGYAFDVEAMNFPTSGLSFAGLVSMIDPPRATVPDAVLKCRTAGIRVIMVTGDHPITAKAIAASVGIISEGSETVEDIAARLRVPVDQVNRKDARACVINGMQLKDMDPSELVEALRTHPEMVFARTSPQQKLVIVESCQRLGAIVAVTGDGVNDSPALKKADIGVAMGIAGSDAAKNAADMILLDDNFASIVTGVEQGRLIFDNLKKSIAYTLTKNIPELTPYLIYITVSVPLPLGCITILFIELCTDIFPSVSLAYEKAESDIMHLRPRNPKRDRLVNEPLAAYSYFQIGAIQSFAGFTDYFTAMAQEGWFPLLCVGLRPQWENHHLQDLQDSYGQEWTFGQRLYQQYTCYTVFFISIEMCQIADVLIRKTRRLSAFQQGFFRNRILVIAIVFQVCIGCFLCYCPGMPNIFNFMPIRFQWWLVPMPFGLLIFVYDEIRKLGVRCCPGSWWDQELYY
T1 sequence (P18434 whole entry partner): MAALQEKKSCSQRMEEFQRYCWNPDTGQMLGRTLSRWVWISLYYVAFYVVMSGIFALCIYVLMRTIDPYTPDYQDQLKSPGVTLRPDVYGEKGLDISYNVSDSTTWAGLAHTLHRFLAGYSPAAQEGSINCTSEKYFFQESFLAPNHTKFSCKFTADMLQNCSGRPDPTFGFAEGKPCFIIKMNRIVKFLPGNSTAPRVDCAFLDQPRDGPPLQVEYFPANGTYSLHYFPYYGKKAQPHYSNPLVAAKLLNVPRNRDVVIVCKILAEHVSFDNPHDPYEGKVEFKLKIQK

In the case of `Cc1nc2c3c(ccn2c1C)[C@@H](O)[C@H](O)[C@@H](c1ccccc1)N3` [BYK99], the “times higher apparent affinity than SCH28080” value in the assay with H+,K+-ATPase [1] is listed as “more than 25 times”.

At H+,K+-ATPase [2], `CNCc1ccc(OCc2ccccc2OCc2ccccc2)cc1` [DQ-06] displayed an IC50 of 700 ± 40 nM. Further, the “H+,K+-ATPase activity, raw data of dose-dependent inhibition” value on H+,K+-ATPase [2] (setting [4]) was 0.01 and -0.01 and 0.22 and -0.22 and -0.74 and -0.4; on H+,K+-ATPase [2] (setting [5]) it was 1.74 and 1.71 and 2.79 and 2.38 and 1.76 and 2.41; on H+,K+-ATPase [2] (setting [6]), 5.02 and 5.03 and 3.19 and 3.1 and 2.85 and 2.51; on H+,K+-ATPase [2] (setting [7]), 5.51 and 5.6 (2×) and 5.65 and 5.75 and 5.83; on H+,K+-ATPase [2] (setting [8]), 5.58 and 6.16 and 6.26 and 6.39 and 7.23 and 7.48; at H+,K+-ATPase [2] (setting [9]), 9.37 and 9.6 and 11.28 and 10.91 and 10.15 and 11.11. Besides, the “H+,K+-ATPase activity, raw data of dose-dependent inhibition” value at H+,K+-ATPase [2] (setting [10]) is 20.15 and 21.1 and 19.71 and 21.04 and 20.73 and 20.63; on H+,K+-ATPase [2] (setting [11]), 39.09 and 39.39 and 38.28 and 36.79 and 38.33 and 39.14; at H+,K+-ATPase [2] (setting [12]), 57.6 and 58.17 and 57.79 and 57.15 and 58.12 and 57.53; at H+,K+-ATPase [2] (setting [13]), 90.69 and 91.88 and 87.97 and 84.74 and 90.82 and 88.26; on H+,K+-ATPase [2] (setting [14]) it was 101.14 and 100.91 and 95.09 and 94.94 and 96.97 and 96.94; at H+,K+-ATPase [2] (setting [15]), 102.84 and 103.26 and 99.81 and 97.12 and 97.38 and 101.76. For the same compound, the Ki on H+,K+-ATPase [3] (K+-competitive inhibition, read-out: Ki) is 93.8 nM. The “reciprocal K+-stimulated ATPase activity, Lineweaver-Burk raw data” value (“reciprocal K+-stimulated ATPase activity” below) on H+,K+-ATPase [3] (compound concentration 50, 1/KCl 0.05 (units not given)) was 0.0059 and 0.0057 and 0.006; at H+,K+-ATPase [3] (compound concentration 50, 1/KCl 0.1 (units not given)), 0.0075 and 0.0077 and 0.0078; on H+,K+-ATPase [3] (compound concentration 50, 1/KCl 0.125 (units not given)), 0.0067 and 0.0066 and 0.007; on H+,K+-ATPase [3] (compound concentration 50, 1/KCl 0.2 (units not given)), 0.0088 and 0.0086 and 0.0089; at H+,K+-ATPase [3] (compound concentration 50, 1/KCl 0.5 (units not given)) it was 0.0111 and 0.011 and 0.0112; on H+,K+-ATPase [3] (compound concentration 50, 1/KCl 1 (units not given)) it was 0.0282 and 0.0275 and 0.0291. The “reciprocal K+-stimulated ATPase activity” value was 0.035 and 0.034 and 0.0286 at H+,K+-ATPase [3] (compound concentration 50, 1/KCl 2 (units not given)); 0.0066 and 0.0063 and 0.0065 at H+,K+-ATPase [3] (compound concentration 100, 1/KCl 0.05 (units not given)); 0.0087 and 0.0094 and 0.0098 at H+,K+-ATPase [3] (compound concentration 100, 1/KCl 0.1 (units not given)); 0.0086 and 0.0083 and 0.0082 on H+,K+-ATPase [3] (compound concentration 100, 1/KCl 0.125 (units not given)); 0.011 and 0.0106 and 0.0113 on H+,K+-ATPase [3] (compound concentration 100, 1/KCl 0.2 (units not given)); 0.0167 and 0.0156 and 0.0168 on H+,K+-ATPase [3] (compound concentration 100, 1/KCl 0.5 (units not given)). Besides, the “reciprocal K+-stimulated ATPase activity” value was 0.0412 and 0.0415 and 0.043 on H+,K+-ATPase [3] (compound concentration 100, 1/KCl 1 (units not given)); 0.056 and 0.0496 and 0.0604 on H+,K+-ATPase [3] (compound concentration 100, 1/KCl 2 (units not given)); 0.0084 and 0.0076 and 0.008 at H+,K+-ATPase [3] (compound concentration 400, 1/KCl 0.05 (units not given)); 0.0109 and 0.0112 and 0.011 on H+,K+-ATPase [3] (compound concentration 400, 1/KCl 0.1 (units not given)); 0.0123 and 0.011 and 0.0111 on H+,K+-ATPase [3] (compound concentration 400, 1/KCl 0.125 (units not given)); 0.0153 and 0.0154 and 0.0157 at H+,K+-ATPase [3] (compound concentration 400, 1/KCl 0.2 (units not given)). Also, the “reciprocal K+-stimulated ATPase activity” value at H+,K+-ATPase [3] (compound concentration 400, 1/KCl 0.5 (units not given)) is 0.0261 and 0.0253 and 0.0282; on H+,K+-ATPase [3] (compound concentration 400, 1/KCl 1 (units not given)) it was 0.069 and 0.0649 and 0.0653; at H+,K+-ATPase [3] (compound concentration 400, 1/KCl 2 (units not given)) it was 0.097 and 0.0973 and 0.106. Further, the inhibition mode result at H+,K+-ATPase [3] is reported as “purely competitive with K^+”.

In the case of `COCCO[C@@H]1c2ccn3c(C)c(C)nc3c2N[C@H](c2ccccc2)[C@H]1O` [soraprazan], the “times higher apparent affinity than SCH28080” value in the assay with H+,K+-ATPase [1] is reported as more than 7 times.

With `CNCC#CCOCc1cc(Cl)ccc1-c1ccc(Cl)cc1` [DQ-02], 39900 ± 3300 nM corresponded to half-maximal inhibition against H+,K+-ATPase [2] (IC50). The “H+,K+-ATPase activity, raw data of dose-dependent inhibition” value on H+,K+-ATPase [2] (setting [4]) was -3.48 and -2.88 and 2.99 and 4.4 and 2.96 and 5.89; at H+,K+-ATPase [2] (setting [5]), 0.86 and 1.16 and 4.19 and 5.19 and 4.89 and 4.75; on H+,K+-ATPase [2] (setting [6]), 42.01 and 43.89 and 31.47 and 31.59 and 28.65 and 29.6; on H+,K+-ATPase [2] (setting [7]), 44.62 and 46.8 and 48.6 and 46.17 and 46.72 and 37.34; at H+,K+-ATPase [2] (setting [8]), 56.61 and 55.53 and 56.64 and 57.99 and 58.21 and 59.24; at H+,K+-ATPase [2] (setting [9]), 76.31 and 74.65 and 77.66 and 80.01 and 78.54 and 73.73. Further, the “H+,K+-ATPase activity, raw data of dose-dependent inhibition” value was 94.23 and 90.64 and 95.59 and 93.89 and 93 and 95.88 at H+,K+-ATPase [2] (setting [10]); 97.7 and 98.02 and 94.2 and 97.49 and 93.51 and 99.15 on H+,K+-ATPase [2] (setting [11]); 97.98 and 96.67 and 103.79 and 104.81 and 106.59 and 107.52 at H+,K+-ATPase [2] (setting [12]); 99.57 and 99.45 and 98.18 and 98.05 and 96.63 and 99.09 at H+,K+-ATPase [2] (setting [13]); 97.5 and 100.13 and 97.23 and 97.51 and 96.21 and 102.69 at H+,K+-ATPase [2] (setting [14]); 99.85 and 98.59 and 101.41 and 99.82 and 98.22 and 99.87 on H+,K+-ATPase [2] (setting [15]). The “reciprocal K+-stimulated ATPase activity” value at H+,K+-ATPase [3] (compound concentration 5, 1/KCl 0.05 (units not given)) is 0.0047 and 0.0046 and 0.005; at H+,K+-ATPase [3] (compound concentration 5, 1/KCl 0.1 (units not given)), 0.0059 and 0.0058 (2×); at H+,K+-ATPase [3] (compound concentration 5, 1/KCl 0.125 (units not given)), 0.0059 (2×) and 0.006; on H+,K+-ATPase [3] (compound concentration 5, 1/KCl 0.2 (units not given)), 0.0059 (2×) and 0.0061; at H+,K+-ATPase [3] (compound concentration 5, 1/KCl 0.5 (units not given)), 0.0114 and 0.0113 and 0.0109; on H+,K+-ATPase [3] (compound concentration 5, 1/KCl 1 (units not given)), 0.0177 and 0.0175 and 0.0166. The “reciprocal K+-stimulated ATPase activity” value was 0.0312 and 0.0335 and 0.0294 at H+,K+-ATPase [3] (compound concentration 5, 1/KCl 2 (units not given)); 0.0052 on H+,K+-ATPase [3] (compound concentration 10, 1/KCl 0.05 (units not given)); 0.0066 and 0.0067 and 0.0069 at H+,K+-ATPase [3] (compound concentration 10, 1/KCl 0.1 (units not given)); 0.0073 and 0.0075 and 0.0074 at H+,K+-ATPase [3] (compound concentration 10, 1/KCl 0.125 (units not given)); 0.0079 and 0.0078 and 0.0077 on H+,K+-ATPase [3] (compound concentration 10, 1/KCl 0.2 (units not given)); 0.0173 and 0.016 and 0.018 at H+,K+-ATPase [3] (compound concentration 10, 1/KCl 0.5 (units not given)). Moreover, the “reciprocal K+-stimulated ATPase activity” value at H+,K+-ATPase [3] (compound concentration 10, 1/KCl 1 (units not given)) is 0.0258 (2×) and 0.029; at H+,K+-ATPase [3] (compound concentration 10, 1/KCl 2 (units not given)), 0.0498 and 0.0514 and 0.0558; at H+,K+-ATPase [3] (compound concentration 40, 1/KCl 0.05 (units not given)) it was 0.0101 and 0.0102 and 0.0088; at H+,K+-ATPase [3] (compound concentration 40, 1/KCl 0.1 (units not given)), 0.0146 and 0.0158 and 0.0151; on H+,K+-ATPase [3] (compound concentration 40, 1/KCl 0.125 (units not given)), 0.0175 and 0.0157 and 0.013; on H+,K+-ATPase [3] (compound concentration 40, 1/KCl 0.2 (units not given)) it was 0.0176 and 0.0181 and 0.0182. Further, the “reciprocal K+-stimulated ATPase activity” value at H+,K+-ATPase [3] (compound concentration 40, 1/KCl 0.5 (units not given)) is 0.0393 and 0.036 and 0.0314; at H+,K+-ATPase [3] (compound concentration 40, 1/KCl 1 (units not given)) it was 0.0754 and 0.0762 and 0.0737; on H+,K+-ATPase [3] (compound concentration 40, 1/KCl 2 (units not given)), 0.1646 and 0.1689 and 0.18. The Ki at H+,K+-ATPase [3] (double reciprocal plot analysis, K+-competitive, read-out: estimated inhibition constant Ki) was 4650 nM. Moreover, at H+,K+-ATPase [3], the inhibition mode entry is “typical competitive inhibition pattern”.

In general, IC50 refers to the point on the concentration scale where inhibition reaches its midpoint. In general, Ki refers to the equilibrium dissociation constant of an inhibitor or competing ligand from its target.

(Values after publication PMC10509173, “Deep learning driven de novo drug design based on gastric proton pump structures” (Communications Biology, 2023).)
